Assay results: patent publication US7704995B2 (Exelixis, Inc., priority 2003, dated 2010)

Molecular target: T1, Chk1 (Homo sapiens, UniProt O14757)
T1 construct: purchased Upstate Biotechnology
T1 sequence (O14757 1-476): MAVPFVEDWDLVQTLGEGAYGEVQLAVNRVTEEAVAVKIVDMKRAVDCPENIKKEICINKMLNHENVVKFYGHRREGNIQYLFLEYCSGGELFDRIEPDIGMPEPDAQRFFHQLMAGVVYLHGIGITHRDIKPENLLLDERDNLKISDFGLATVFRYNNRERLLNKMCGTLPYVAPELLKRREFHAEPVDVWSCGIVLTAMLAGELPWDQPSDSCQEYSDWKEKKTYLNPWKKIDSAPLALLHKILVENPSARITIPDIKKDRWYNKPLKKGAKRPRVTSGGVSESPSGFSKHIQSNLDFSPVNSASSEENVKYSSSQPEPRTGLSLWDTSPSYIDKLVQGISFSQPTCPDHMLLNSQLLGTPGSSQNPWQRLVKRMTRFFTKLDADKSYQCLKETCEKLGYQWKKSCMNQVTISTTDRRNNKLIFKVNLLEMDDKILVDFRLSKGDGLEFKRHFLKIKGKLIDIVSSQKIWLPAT
Experiment: Chk1 kinase assay: incorporation of γ-33P ATP into immobilized myelin basic protein
Assay type: biochemical
Settings: Table 11, Chk1 only; class symbols A-D; read-out: Chk1 IC50
Outline: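 Radiometric filter-free format: Chk1 10 nM, 10 μM ATP; Chk2 20 nM, 30 μM ATP; γ-33P ATP tracer; immobilized MBP substrate; Hepes pH 7.6, 10 mM MgCl2, 1 mM DTT; 1 h RT; 1% DMSO. Scintillation counting of washed plates. IC50/Ki from curve fit.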

IC50 [nM] | Structure (SMILES)
< 50 | Nc1ncc(-c2cccc(C(=O)NCc3ccccc3OC(F)(F)F)c2)nc1C(=O)N[C@H]1CCCNC1 [Example 846, 3-amino-N-[(3S)-piperidin-3-yl]-6-(3-{[({2-[(trifluoromethyl)oxy]phenyl}methyl)amino]carbonyl}phenyl)pyrazine-2-carboxamide]
< 50 | Nc1ncc(-c2cccc(C(=O)NCc3ccc(F)c(C(F)(F)F)c3)c2)nc1C(=O)N[C@H]1CCCNC1 [Example 850, 3-amino-6-{3-[({[4-fluoro-3-(trifluoromethyl)phenyl]methyl}amino)carbonyl]phenyl}-N-[(3S)-piperidin-3-yl]pyrazine-2-carboxamide]
< 50 | CCNCCOc1cccc(-c2cnc(N)c(C(=O)N[C@H]3CCCNC3)n2)c1 [Example 964, 3-amino-6-(3-{[2-(ethylamino)ethyl]oxy}phenyl)-N-[(3S)-piperidin-3-yl]pyrazine-2-carboxamide]
< 50 | Nc1ncc(-c2cccc(NC(=O)c3cccnc3)c2)nc1C(=O)N[C@H]1CCCNC1 [Example 981, 3-amino-N-[(3S)-piperidin-3-yl]-6-{3-[(pyridin-3-ylcarbonyl)amino]phenyl}pyrazine-2-carboxamide]
< 50 | Nc1ncc(-c2cccc(NC(=O)Cc3cccc(C(F)(F)F)c3)c2)nc1C(=O)N[C@H]1CCCNC1 [Example 976, 3-amino-N-[(3S)-piperidin-3-yl]-6-[3-({[3-(trifluoromethyl)phenyl]acetyl}amino)phenyl]pyrazine-2-carboxamide]

Same assay, conditions: Table 11; Chk1 only; read-out: Chk1 IC50

Structure (SMILES) | IC50 [nM]
Nc1ncc(-c2cccc(C(=O)NC3CCOc4ccccc43)c2)nc1C(=O)N[C@H]1CCNC1 (stereo partly drawn) [Example 778, 3-amino-6-{3-[(3,4-dihydro-2H-chromen-4-ylamino)carbonyl]phenyl}-N-[(3S)-pyrrolidin-3-yl]pyrazine-2-carboxamide] | 50 to 1000
CCN1CC[C@H](NC(=O)c2nc(-c3cccc(C(=O)N[C@H]4c5ccccc5C[C@H]4O)c3)cnc2N)C1 [Example 727, 3-amino-N-[(3S)-1-ethylpyrrolidin-3-yl]-6-[3-({[(1S,2R)-2-hydroxy-2,3-dihydro-1H-inden-1-yl]amino}carbonyl)phenyl]pyrazine-2-carboxamide] | 1000 to 10000
CC(C)(C)OC(=O)N1CC[C@H](NC(=O)c2nc(-c3cccc(C(=O)NC(C)(C)c4ccccc4)c3)cnc2N)C1 [Example 800, 1,1-dimethylethyl (3S)-3-({[3-amino-6-(3-{[(1-methyl-1-phenylethyl)amino]carbonyl}phenyl)pyrazin-2-yl]carbonyl}amino)pyrrolidine-1-carboxylate] | ≥ 10000
Nc1ncc(-c2cccc(CO)c2)nc1-c1nc(-c2cccnc2)n[nH]1 [Example 580, {3-[5-amino-6-(3-pyridin-3-yl-1H-1,2,4-triazol-5-yl)pyrazin-2-yl]phenyl}methanol] | 50 to 1000
Nc1ncc(-c2cccc(C(=O)NCc3ccccc3)c2)nc1C(=O)NC1CCCCC1NC(=O)c1nc(-c2cccc(C(=O)NCc3ccccc3)c2)cnc1N (stereo not shown) [Example 660, N,N′-cyclohexane-1,2-diylbis[3-amino-6-(3-{[(phenylmethyl)amino]carbonyl}phenyl)pyrazine-2-carboxamide]] | ≥ 10000
Cn1nc(-c2nc(-c3cccc(C(=O)N[C@H]4CCc5ccccc54)c3)cnc2N)nc1C1CCCN(C(=O)OCc2ccccc2)C1 (stereo partly drawn) [Example 721, phenylmethyl 3-{3-[3-amino-6-(3-{[(1S)-2,3-dihydro-1H-inden-1-ylamino]carbonyl}phenyl)pyrazin-2-yl]-1-methyl-1H-1,2,4-triazol-5-yl}piperidine-1-carboxylate] | ≥ 10000
C/C(=N\N1CCOCC1)c1nc(-c2cccc(C(=O)NCc3ccccc3)c2)cnc1N [Example 626, 3-{5-amino-6-[(1E)-N-morpholin-4-ylethanimidoyl]pyrazin-2-yl}-N-(phenylmethyl)benzamide] | 1000 to 10000

More lines, now with the values ahead:

IC50 [nM] | Structure (SMILES)
50 to 1000 | CNC(=O)c1nc(-c2cc(F)cc(C(=O)N[C@H]3CCc4ccccc43)c2)cnc1N [Example 788, 3-amino-6-(3-{[(1S)-2,3-dihydro-1H-inden-1-ylamino]carbonyl}-5-fluorophenyl)-N-methylpyrazine-2-carboxamide]
< 50 | CNC(=O)c1nc(-c2cccc(CN[C@@H]3CCc4ccccc4C3)c2)cnc1N [Example 445, 3-amino-N-methyl-6-(3-{[(2R)-1,2,3,4-tetrahydronaphthalen-2-ylamino]methyl}phenyl)pyrazine-2-carboxamide]
1000 to 10000 | CNC(=O)c1cc(-c2cccc(CNC3CCc4c(F)ccc(Br)c43)c2)cnc1N (stereo not shown) [Example 521, 2-amino-5-(3-{[(7-bromo-4-fluoro-2,3-dihydro-1H-inden-1-yl)amino]methyl}phenyl)-N-methylpyridine-3-carboxamide]
< 50 | CNC(=O)c1nc(-c2cccc(CNC3CCc4cc(-c5ccoc5)ccc43)c2)cnc1N (stereo not shown) [Example 480, 3-amino-6-(3-{[(5-furan-3-yl-2,3-dihydro-1H-inden-1-yl)amino]methyl}phenyl)-N-methylpyrazine-2-carboxamide]
50 to 1000 | CNC(=O)c1nc(-c2cccc(Cn3ccnc3)c2)cnc1N [Example 504, 3-amino-6-[3-(1H-imidazol-1-ylmethyl)phenyl]-N-methylpyrazine-2-carboxamide]
50 to 1000 | CNC(=O)c1nc(-c2cccc(CN[C@@H]3c4ccccc4C[C@@H]3OC)c2)cnc1N [Example 468, 3-amino-N-methyl-6-[3-({[(1R,2S)-2-(methyloxy)-2,3-dihydro-1H-inden-1-yl]amino}methyl)phenyl]pyrazine-2-carboxamide]

Same assay, conditions: read-out: Chk1 IC50

Structure (SMILES) | IC50 [nM]
CNC(=O)c1cc(-c2cccc(CO)c2)cnc1N [Example 35] | 50 to 1000
CCN(Cc1ccncc1)C(=O)c1cccc(-c2cnc(N)c(C(=O)NC)n2)c1 [Example 116, 3-amino-6-(3-{[ethyl(pyridin-4-ylmethyl)amino]carbonyl}phenyl)-N-methylpyrazine-2-carboxamide] | 1000 to 10000

Now from value to compound:

IC50 [nM] | Structure (SMILES)
50 to 1000 | CNC(=O)c1nc(-c2cccc(C(=O)NCC3CC3)c2)cnc1N [Example 219, 3-amino-6-(3-{[(cyclopropylmethyl)amino]carbonyl}phenyl)-N-methylpyrazine-2-carboxamide]
50 to 1000 | CNC(=O)c1nc(-c2cccc(CNCc3c(F)cccc3F)c2)cnc1N [Example 402, 3-amino-6-[3-({[(2,6-difluorophenyl)methyl]amino}methyl)phenyl]-N-methylpyrazine-2-carboxamide]
1000 to 10000 | CNC(=O)c1nc(-c2cccc(C(=O)NCc3ccc(N4CCN(C)CC4)cc3)c2)cnc1N [Example 290, 3-amino-N-methyl-6-{3-[({[4-(4-methylpiperazin-1-yl)phenyl]methyl}amino)carbonyl]phenyl}pyrazine-2-carboxamide]
50 to 1000 | CNC(=O)c1nc(-c2cccc(CNC(=O)Cc3ccc(Cl)cc3)c2)cnc1N [Example 331, 3-amino-6-[3-({[(4-chlorophenyl)acetyl]amino}methyl)phenyl]-N-methylpyrazine-2-carboxamide]
50 to 1000 | CNC(=O)c1nc(-c2cccc(CNCc3c(OC)cccc3OC)c2)cnc1N [Example 398, 3-amino-6-{3-[({[2,6-bis(methyloxy)phenyl]methyl}amino)methyl]phenyl}-N-methylpyrazine-2-carboxamide]
